From paper PMC10607054 (International Journal of Molecular Sciences, 2023) come the findings set out here.

Read-outs that look alike come from different tables or passages of the source.

The target in one assay is T1, AhR (Homo sapiens, UniProt P35869).
T1 construct: purchased INDIGO Biosciences
T1 sequence (P35869 11-848): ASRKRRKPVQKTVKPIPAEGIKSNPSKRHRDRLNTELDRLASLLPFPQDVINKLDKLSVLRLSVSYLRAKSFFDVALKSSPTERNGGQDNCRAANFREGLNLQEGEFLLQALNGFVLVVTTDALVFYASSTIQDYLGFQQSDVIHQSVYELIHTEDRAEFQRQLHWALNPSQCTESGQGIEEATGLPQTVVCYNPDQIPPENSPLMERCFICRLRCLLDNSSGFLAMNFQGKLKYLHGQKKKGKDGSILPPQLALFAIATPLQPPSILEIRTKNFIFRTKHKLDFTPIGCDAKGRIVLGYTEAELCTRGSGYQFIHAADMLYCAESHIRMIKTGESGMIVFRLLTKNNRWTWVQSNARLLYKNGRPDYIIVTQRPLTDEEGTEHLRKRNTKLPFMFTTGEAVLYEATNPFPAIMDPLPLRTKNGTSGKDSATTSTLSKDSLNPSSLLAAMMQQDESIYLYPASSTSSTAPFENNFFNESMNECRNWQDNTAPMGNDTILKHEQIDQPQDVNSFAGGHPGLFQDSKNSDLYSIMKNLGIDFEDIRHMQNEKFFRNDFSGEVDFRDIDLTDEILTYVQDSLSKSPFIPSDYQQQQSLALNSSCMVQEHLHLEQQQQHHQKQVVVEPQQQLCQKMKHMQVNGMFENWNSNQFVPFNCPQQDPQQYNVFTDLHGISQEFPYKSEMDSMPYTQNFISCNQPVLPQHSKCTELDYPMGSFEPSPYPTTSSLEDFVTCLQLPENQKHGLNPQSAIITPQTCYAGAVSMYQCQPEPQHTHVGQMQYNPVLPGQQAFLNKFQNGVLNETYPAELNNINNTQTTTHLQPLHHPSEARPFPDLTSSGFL
In words: cell-based Human AhR Reporter Assay System (luciferase). The protocol:
Briefly, the reporter cells were recovered using the cell recovery medium for 5 h. […] Luciferase detection reagent was added after discarding the media and luminescence was measured using a Citation 5 Cell Imaging Multi-Mode Reader (BioTek, Winooski, VT, USA).
In general terms: A reporter such as luciferase makes a cellular process visible.

Assay [1] deals with T2, PPARγ ligand-binding domain (Homo sapiens, UniProt P37231).
T2 construct: PPARγ-LBD was added to the compounds; purchased Life Technologies Corporation
T2 sequence (P37231 238-503 limits assumed): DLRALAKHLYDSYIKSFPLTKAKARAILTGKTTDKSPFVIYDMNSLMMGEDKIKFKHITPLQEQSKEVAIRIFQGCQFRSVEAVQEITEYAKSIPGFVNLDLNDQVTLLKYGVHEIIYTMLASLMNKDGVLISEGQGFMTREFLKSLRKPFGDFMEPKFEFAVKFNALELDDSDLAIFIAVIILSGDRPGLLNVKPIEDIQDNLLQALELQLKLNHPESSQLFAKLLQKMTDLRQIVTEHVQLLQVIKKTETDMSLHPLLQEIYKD
In words: LanthaScreen TR-FRET PPARγ Coactivator Assay Kit (binding to PPARγ LBD). It is filed as biochemical. The protocol: A PPARγ receptor binding assay was performed using the LanthaScreen™ TR-FRET PPARγ Coactivator Assay Kit (Life Technologies Corporation, Grand Island, NY, USA) following the manufacturer’s protocol. Briefly, PPARγ-LBD was added to the compounds, followed by the addition of the antibody (Tb-anti-GST) and a mixture of peptide (Fluorescein-TRAP220/DRIP-2). The reaction mixture was incubated at room temperature for 2 h or overnight.
For orientation: TR-FRET usually uses a lanthanide donor and a delayed reading to cut background.

The test system of assay [2] is PPAR-responsive element (PPRE). In words: PPRE-driven (J3TKpGL3, apo-AII promoter) Dual-Luciferase reporter assay in melanoma cells. It is filed as cell-based. The conditions noted are these: 10^−4 M, 40 h, human melanoma cells WM239A and A375P; vs non-ligand stimulated control. The protocol: The transcriptional activation of the PPRE promoter was tested using the J3TKpGL3 reporter plasmid, which contains a luciferase gene driven by the PPAR-responsive element (PPRE), which consists of three copies of the J site from the apo-AII gene promoter. The activation of PPAR elements was evaluated in melanoma cells following stimulation with a Firefly–Renilla Dual-Luciferase Reporter System (Promega, Madison, WI, USA). Experiments were carried out using human melanoma line WM239A and A375P (Trust Functional Genomics Cell Bank, London, UK) cells cultured in RPMI culture medium (ThermoFisher Scientific, Waltham, MA, USA) supplemented with 10% fetal bovine serum (EURx, Gdansk, Poland) at 37 °C, with a 5% CO2 content. […] Luciferase activity was measured using a commercial kit (Luciferase Assay System, Promega) according to the instructions of the supplier and assessed in a chemiluminometer (Synergy HT; Bio-Tek, Winooski, VT, USA)) using the Dual-Reporter Luciferase Assay System (Promega, Madison, WI, USA).

The mark [3] stands for this setting: Human AhR Reporter Assay System, two independent dose responses, 3 to 4 replicas per assay, mean ± spread (n = 2), read-out: EC50 (M) AhR.
Setting [4] is: value in Figure 1, representative experiment, read-out: EC50 (AhR, representative dose response, Figure 1).
The mark [5] stands for this setting: LanthaScreen TR-FRET PPARγ coactivator assay, PPARγ LBD, two independent dose responses, 3 to 4 replicas per assay, read-out: EC50 (M) PPARγ.
Setting [6] is: value in Figure 3A, representative experiment, read-out: EC50 (PPARγ, representative dose response, Figure 3A).

For the compound `COc1ccc(NC=O)c(C(=O)CCNC(C)=O)c1` [AFMK, N^1-acetyl-N^2-formyl-5-methoxykynuramine], the EC50 (usually the midpoint of the concentration-response curve) was determined as 4.4e-05 M on AhR (setting [3]), 7.5e-05 M on AhR (setting [4]), 0.00028 M in assay [1] (setting [5]) and 0.00011 M in assay [1] (setting [6]). Also, the “stimulation of transcriptional activity of (PPRE)3-containing ApoA-II gene promoter (luciferase, RLU)” value (“stimulation” below) in assay [2] is “statistically significant stimulation”.

Turning to `COc1ccc2[nH]cc(CCN)c2c1` [5-MTT, 5-methoxytryptamine], the EC50 was determined as 0.0005 M on AhR (EC50 (AhR, representative dose response, Figure 1), value in Figure 1, representative experiment); 0.00029 M at AhR (EC50 (M) AhR, Human AhR Reporter Assay System, two independent dose responses, 3 to 4 replicas per assay, mean ± spread (n = 2)); 3e-05 M in assay [1] (EC50 (M) PPARγ, LanthaScreen TR-FRET PPARγ coactivator assay, PPARγ LBD, two independent dose responses, 3 to 4 replicas per assay); 6.3e-05 M in assay [1] (EC50 (PPARγ, representative dose response, Figure 3A), value in Figure 3A, representative experiment).

As for `N[C@@H](Cc1c[nH]c2ccc(O)cc12)C(=O)O` [5(OH)tryptophan, 5-hydroxytryptophan], in assay [2], the “stimulation” value is recorded as “statistically significant stimulation”.

For `COc1ccc2[nH]cc(CCNC(C)=O)c2c1` [Melatonin, N-acetyl-5-methoxytryptamine, reference compound], the figures for the concentration for a half-maximal effect (EC50) in assay [1] (setting [5]) and in assay [1] (setting [6]) were 0.0012 M and 0.00095 M, respectively. For the same compound, the “stimulation” value in assay [2] was “statistically significant stimulation”.

As to `COc1cc2c(CCNC(C)=O)c[nH]c2cc1O` [6-Hydroxymelatonin, 6-hydroxymelatonin], the EC50 at AhR (setting [3]) is 3.1e-05 M; at AhR (setting [4]), 3.3e-05 M; in assay [1] (setting [5]) it was 0.0037 M; in assay [1] (setting [6]), 0.0001 M. Moreover, in assay [2], the “stimulation” value was “statistically significant stimulation”.
